Experimental data: patent publication US8933245B2, “Preservation of ergothioneine” (ELC Management LLC, priority 2009, dated 2015)
Values joined by “and” are separate entries in the source; they are usually repeats but may differ in a detail not shown here. Equal entries are not always repeated. Values belong to the molecule of their own block, whether it stands above or below them.

Columns and labels:
[1] = cited from earlier work; for Ka: acid listed with one ionized form
[2] = Preventing trimethylamine odor by addition of compounds before heating ergothioneine with sodium hydroxide; assay type: physicochemical; details: for % EGT (w/v): boiled 10 minutes, HPLC
Method: Samples were prepared in glass tubes with screw caps with about 0.05% (w/v) ergothioneine in water, a test sample, at the indicated concentration, and 0.1N NaOH (except for the first tube, in which NaOH was omitted as a negative control). The pH of each sample was determined by litmus paper, and then the tubes capped and placed in a boiling water bath for 10 minutes. The tubes were then cooled to room temperature, and then each one was uncapped and smelled by three testers, each of whom scored the odor. The scores were converted to a scale of 0 (no odor) to 3 (strong fishy trimethylamine odor) and then averaged.

[3] = Formation of fishy amine odor by boiling ergothioneine with sodium hydroxide or other components; assay type: physicochemical
Method: This became the assay system used to test agents and procedures for reduction or prevention of the odor.
Four samples of a 5 ml ergothioneine solution at 0.1% (w/v) were prepared in glass test tubes with screw caps. To the first was added 5 ml of water, to the second 5 ml of 0.2% (w/v) sodium metabisulfite, to the third 4 ml of water and 1 ml of 1N sodium hydroxide, and to the fourth 5 ml of 0.2% (w/v) citric acid. […] The samples were boiled for 10 minutes and each one was smelled.
This allowed the testing of methods to inhibit the formation of the odor and to suppress the odor after formation.

[4] = Formation of yellow addition product of ergothioneine and sodium metabisulfite; assay type: physicochemical
Method: The vials were sealed and mixing the samples was avoided. The samples were incubated and color development observed. The solutions were examined at 1 hour, and the optical density at 405 nm was measured at 2 hours (Table 9).
The cap was removed and the solution was then shaken for 3 to 4 minutes and ambient air was bubbled through it to drive out the dissolved sulfur dioxide gas. […] Therefore the loss of ergothioneine after addition of sodium metabisulfite is due to formation of an addition product which is reversible, and the ergothioneine is not permanently lost.

[5] = Stability of ergothioneine during storage with and without citric acid (HPLC); assay type: physicochemical; details: percent of starting concentration, 2 mM in water; for % EGT with citric acid: 0.2% citric acid
Method: The samples were stored at 4° C., 25° C. or 40° C. for 30 or 60 days and then analyzed by HPLC. Each vial was used once and then discarded. Each measurement was made in triplicate and the results averaged. A standard curve of ergothioneine concentration was constructed at each time point to quantify the amount of ergothioneine in each vial. Each amount in Table 2 is expressed as percentage of the amount measured in the initial sample at the start of the experiment.

[6] = Stability of ergothioneine solution at acidic pH on heating; assay type: physicochemical; details: 0.05% solution, pH 5, heating 40 C for 60 days
Description: It has been observed that ergothioneine is quite stable at acidic pH. At pH 5 a 0.05% solution remains within 1% of its concentration after heating 40 C for 60 days. However, the reports of its stability in alkali are mixed in the literature. See, for example, Philip Hartman. “Ergothioneine as antioxidant”, Methods Enzymol. 186:310-318, 1990 at p. 311 (“ . . . the sulfur atom of Ergothioneine is remarkably stable to alkali”); H. Heath and G. Toennies. “The preparation and properties of Ergothioneine disulphide”, J. Chem. Soc. pages 204-210, (1958) at p. 204 (“the sulphur is completely unaffected by boiling 50% aqueous potassium hydroxide.”); Oxis International, Inc. Compound Monograph “L-Ergothioneine. Revision III”, at p. […] “Synthesis of L-(+)-Ergothioneine”, J. Org. Chem. 60:6296-6301, 1995 at p. 6296 (“this explains its stability toward oxidative dimerization”).

[7] = Formation of yellow addition product of ergothioneine and sodium metabisulfite; assay type: physicochemical; details: 1.25% ergothioneine and 5% sodium metabisulfite; cap removed, shaken, ambient air bubbled; after 6 to 7 minutes
[8] = test sample 0.01%, about 0.05% ergothioneine, 0.1N NaOH, litmus paper
[9] = test sample 0.05%, about 0.05% ergothioneine, 0.1N NaOH, litmus paper
[10] = test sample 0.2%, about 0.05% ergothioneine, 0.1N NaOH, litmus paper
[11] = ergothioneine 1.25%, sodium metabisulfite 5.0%
[12] = ergothioneine 1.25%, sodium metabisulfite 7.5%
[13] = ergothioneine 1.25%, sodium metabisulfite 10%
[14] = ergothioneine 1.25%, sodium metabisulfite 12.5%
[15] = ergothioneine 1.25%, sodium metabisulfite 15%
[16] = ergothioneine 1.25%, sodium metabisulfite 17.5%
[17] = ergothioneine 1.25%, sodium metabisulfite 20%
[18] = ergothioneine 1.25%, sodium metabisulfite 22.5%
[19] = ergothioneine 1.25%, sodium metabisulfite 25%
[20] = ergothioneine 1.25%, sodium metabisulfite […]
[21] = ergothioneine […], sodium metabisulfite 0

Structure (SMILES): CCCCCCC(=O)O [heptanoic acid]
Ka [1]: 1.29E−5

Structure (SMILES): Cl [Hydrochloric acid]
% EGT (w/v) ([2]; test sample 0.0001%, 0.1N NaOH): 0.050 % (w/v)
pH ([2]; test sample 0.0001%, about 0.05% ergothioneine, 0.1N NaOH, litmus paper): 11.5
% EGT (w/v) ([2]; test sample 0.01%, 0.1N NaOH): 0.050 % (w/v)
pH [2, 8]: 10

pH [2]: 8.5 and 10 and 10.5
% EGT (w/v) ([2]; test sample 0.01%, 0.1N NaOH): 0.050 % (w/v)
% EGT (w/v) ([2]; test sample 0.05%, 0.1N NaOH): 0.051 % (w/v)
% EGT (w/v) ([2]; test sample 0.2%, 0.1N NaOH): 0.052 % (w/v)
Structure (SMILES): OB(O)O [boric acid]

Structure (SMILES): O=c1[nH]c(=O)c2[nH]c(=O)[nH]c2[nH]1 [uric acid]
Ka [1]: 1.29E−4

pH [3]: 5
pH [2]: 8 and 10
% EGT (w/v) ([2]; test sample 0.01%, 0.1N NaOH): 0.052 % (w/v)
% EGT (w/v) ([2]; test sample 0.05%, 0.1N NaOH): 0.053 % (w/v)
% EGT (w/v) ([2]; test sample 0.2%, 0.1N NaOH): 0.054 % (w/v)
Structure (SMILES): O=C(O)CC(O)(CC(=O)O)C(=O)O [citric acid]

Structure (SMILES): O=S(O)O [sulfurous acid]
Ka (1) ([1]; first ionized form): 1.41E−2
Ka (2) ([1]; second ionized form): 6.31E−8

% EGT (w/v) ([2]; test sample 0.01%, 0.1N NaOH): 0.050 % (w/v)
pH [2, 8]: 10.5
% EGT (w/v) ([2]; test sample 0.05%, 0.1N NaOH): 0.050 % (w/v)
pH [2, 9]: 10.5
% EGT (w/v) ([2]; test sample 0.2%, 0.1N NaOH): 0.047 % (w/v)
pH [2, 10]: 5
Structure (SMILES): O=C1O[C@H]([C@@H](O)CO)C(O)=C1O [ascorbic acid]

% EGT (w/v) ([2]; test sample 0.01%, 0.1N NaOH): 0.052 % (w/v)
% EGT (w/v) ([2]; test sample 0.05%, 0.1N NaOH): 0.054 % (w/v)
% EGT (w/v) ([2]; test sample 0.2%, 0.1N NaOH): 0.058 % (w/v)
Structure (SMILES): O=P(O)(O)O [phosphoric acid]

pH ([3]; litmus paper, before boiling, 5 ml 0.1% ergothioneine plus 5 ml addition): 5
% EGT (w/v) ([2]; test sample 0.01%, 0.1N NaOH): 0.044 % (w/v)
pH [2, 8]: 10
% EGT (w/v) ([2]; test sample 0.05%, 0.1N NaOH): 0.037 % (w/v)
pH [2, 9]: 9.5
% EGT (w/v) ([2]; test sample 0.2%, 0.1N NaOH): 0.029 % (w/v)
pH [2, 10]: 6.5
time to apparent reduction in the amount of ergothioneine (HPLC) ([4]; after addition of sodium metabisulfite, room temperature without boiling): ≤ 10 min
Structure (SMILES): O=S([O-])S(=O)(=O)[O-].[Na+].[Na+] [sodium metabisulfite]

Structure (SMILES): CCCCC(=O)O [pentanoic acid]
Ka [1]: 3.31E−5

% EGT (w/v) ([2]; test sample 0.01%, 0.1N NaOH): 0.050 % (w/v)
pH [2, 8]: 10.5
% EGT (w/v) ([2]; test sample 0.05%, 0.1N NaOH): 0.052 % (w/v)
pH [2, 9]: 8
% EGT (w/v) ([2]; test sample 0.2%, 0.1N NaOH): 0.052 % (w/v)
pH [2, 10]: 4
Structure (SMILES): CC(=O)O [acetic acid]
Ka [1]: 1.74E−5

% EGT with citric acid ([5]; 4° C., 30 days): 101.6%
% EGT with citric acid ([5]; 4° C., 60 days): 105.8%
% EGT with citric acid ([5]; 25° C., 30 days): 101.5%
% EGT with citric acid ([5]; 25° C., 60 days): 102.2%
% EGT with citric acid ([5]; 40° C., 30 days): 101.1%
% EGT with citric acid ([5]; 40° C., 60 days): 99.6%
% EGT without citric acid ([5]; 4° C., 30 days): 96.1%
% EGT without citric acid ([5]; 4° C., 60 days): 106.5%
% EGT without citric acid ([5]; 25° C., 30 days): 84.0%
% EGT without citric acid ([5]; 25° C., 60 days): 100.5%
% EGT without citric acid ([5]; 40° C., 30 days): 86.3%
% EGT without citric acid ([5]; 40° C., 60 days): 99.8%
change of concentration [6]: ≤ 1%
color of solution ([4]; 1.25% ergothioneine and 5% sodium metabisulfite, one week at room temperature in a capped tube): intense lemon yellow
Color description at 1 h [4, 11]: Near colorless
OD405 at 2 hr [4, 11]: 0.104
Color description at 1 h [4, 12]: Yellow tinge
OD405 at 2 hr [4, 12]: 0.186
Color description at 1 h [4, 13]: Slight yellow
OD405 at 2 hr [4, 13]: 0.265
Color description at 1 h [4, 14]: Light yellow
OD405 at 2 hr [4, 14]: 0.456
Color description at 1 h [4, 15]: Yellow
OD405 at 2 hr [4, 15]: 0.593
Color description at 1 h [4, 16]: Yellow
OD405 at 2 hr [4, 16]: 0.966
Color description at 1 h [4, 17]: Light lemon yellow
OD405 at 2 hr [4, 17]: 1.993
Color description at 1 h [4, 18]: Intense lemon yellow
OD405 at 2 hr [4, 18]: 2.873
Color description at 1 h [4, 19]: Intense lemon yellow
OD405 at 2 hr [4, 19]: 3.126
Color description at 1 h [4, 20]: Colorless
OD405 at 2 hr [4, 20]: 0.044
Color description at 1 h [4, 21]: Colorless
OD405 at 2 hr [4, 21]: 0.004
color of solution after driving out sulfur dioxide [7]: nearly colorless with a yellow tinge
Structure (SMILES): C[N+](C)(C)[C@@H](Cc1c[nH]c(=S)[nH]1)C(=O)[O-] [ergothioneine]

Structure (SMILES): [Na+].[OH-] [sodium hydroxide]
pH [3]: approximately 10
